Data on 31 compounds can be found in patent US8188102B2, “Amide derivative for inhibiting the growth of cancer cells” (Hanmi Holdings Co., Ltd., priority 2007, dated 2012).

Test [1] relates to A431 skin cancer cell line. The test is described as follows: Cancer cell growth inhibition, A431 (SRB). To be noted: Homo sapiens, A-431, 72 h, read-out: ID50 (nM) A431.
Test [2] has as its system SK-Br3 breast cancer cell line. The test is described as follows: Cancer cell growth inhibition, SK-Br3 (SRB). Conditions: Homo sapiens, SK-BR-3, 72 h, read-out: ID50 (nM) SK-Br3.

With `C/C=C/C(=O)N1CC[C@H](Oc2cc3c(Nc4ccc(F)c(Cl)c4F)ncnc3cc2OC)C1` [Example 2, (E)-1-((3S)-3-(4-(3-chloro-2,4-difluorophenylamino)-7-methoxyquinazolin-6-yloxy)pyrrolidin-1-yl)but-2-en-1-one], the IC50 came to 85 nM in test [1] and 316 nM in test [2].

Turning to `CC#CC(=O)N1CC[C@H](Oc2cc3c(Nc4ccc(F)c(Cl)c4F)ncnc3cc2OC)C1` [Example 3, 1-((3S)-3-(4-(3-chloro-2,4-difluorophenylamino)-7-methoxyquinazolin-6-yloxy)pyrrolidin-1-yl)but-2-yn-1-one], the results for the IC50 in test [1] and in test [2] were 37 nM and 1300 nM, respectively. On to `COc1cc2ncnc(Nc3ccc(F)c(Cl)c3F)c2cc1O[C@H]1CCN(C(=O)C#CCCN2CCN(C)CC2)C1` [Example 4, 1-((3S)-3-(4-(3-chloro-2,4-difluorophenylamino)-7-methoxyquinazolin-6-yloxy)pyrrolidin-1-yl)-5-(4-methylpiperazin-1-yl)pent-2-yn-1-one], for which the IC50 in test [1] turned out to be 53 nM; in test [2], 604 nM. In the case of `COc1cc2ncnc(Nc3ccc(F)c(Cl)c3F)c2cc1O[C@H]1CCN(C(=O)C#CCN(C)C)C1` [Example 5, 1-((3S)-3-(4-(3-chloro-2,4-difluorophenylamino)-7-methoxyquinazolin-6-yloxy)pyrrolidin-1-yl)-4-(dimethylamino)but-2-yn-1-one], the IC50 in test [1] was 33 nM; in test [2], 128 nM.

For `C=CC(=O)N1CC[C@H](Oc2cc3c(Nc4cccc(Cl)c4F)ncnc3cc2OC)C1` [Example 6, 1-((3S)-3-(4-(3-chloro-2-fluorophenylamino)-7-methoxyquinazolin-6-yloxy)pyrrolidin-1-yl)pro-2-pen-1-one], the results for the IC50 in test [1] and in test [2] were 531 nM and 1670 nM, respectively. `C=CC(=O)N1CC[C@H](Oc2cc3c(Nc4ccc(Br)cc4F)ncnc3cc2OC)C1` [Example 9, 1-((3S)-3-(4-(4-bromo-2-fluorophenylamino)-7-methoxyquinazolin-6-yloxy)pyrrolidin-1-yl)pro-2-pen-1-one]: the figures for the IC50 in test [1] and in test [2] were 15 nM and 58 nM, respectively.

Take `C=CC(=O)N1CC[C@H](Oc2cc3c(Nc4ccc5c(cnn5Cc5cccc(F)c5)c4)ncnc3cc2OC)C1` [Example 12, 1-((3S)-3-(4-(1-(3-fluorobenzyl)-1H-indazol-5-ylamino)-7-methoxyquinazolin-6-yloxy)pyrrolidin-1-yl)pro-2-pen-1-one]: the figures for the IC50 in test [1] and in test [2] were 19 nM and 3 nM, respectively.

In the case of `C=CC(=O)N1CC[C@H](Oc2cc3c(Nc4ccc(F)c(Cl)c4)ncnc3cc2OC)C1` [Example 13, 1-((3S)-3-(4-(3-chloro-4-fluorophenylamino)-7-methoxyquinazolin-6-yloxy)pyrrolidin-1-yl)pro-2-pen-1-one], the IC50 in test [2] was 17 nM. For the compound `C=CC(=O)N1CC[C@@H](Oc2cc3c(Nc4ccc(F)c(Cl)c4)ncnc3cc2OC)C1` [Example 14], the IC50 in test [2] came to 128 nM.

`C=CC(=O)N1CCCC(Oc2cc3c(Nc4ccc(F)c(Cl)c4F)ncnc3cc2OC)C1` (stereo not drawn) [Example 18, 1-(3-(4-(3-chloro-2,4-difluorophenylamino)-7-methoxyquinazolin-6-yloxy)piperidin-1-yl)pro-2-pen-1-one]: the values for the IC50 in test [1] and in test [2] were 6 nM and 19 nM, respectively. With `C=CC(=O)N1CC[C@@H](Oc2cc3c(Nc4ccc(F)c(Cl)c4F)ncnc3cc2OC)C1` [Example 20], the IC50 in test [1] turned out to be 222 nM; in test [2], 57 nM. In the case of `C=CC(=O)NCCOc1cc2c(Nc3ccc(F)c(Cl)c3F)ncnc2cc1OC` [Example 21, N-(2-(4-(3-chloro-2,4-difluorophenylamino)-7-methoxyquinazolin-6-yloxy)ethyl)acrylamide], the IC50 in test [1] is 699 nM; in test [2], 210 nM. Turning to `C=CC(=O)N1CC(Oc2cc3c(Nc4cccc(C#N)c4)ncnc3cc2OC)C1` [Example 27, 3-(6-(1-acryloylazetidin-3-yloxy)-7-methoxyquinazolin-4-ylamino)benzonitrile], the figures for the IC50 in test [1] and in test [2] were 17 nM and 3 nM, respectively. As to `CNC(=O)/C=C/C(=O)N1CC(Oc2cc3c(Nc4ccc(F)c(Cl)c4F)ncnc3cc2OC)C1` [Example 28, (E)-4-(3-(4-(3-chloro-2,4-difluorophenylamino)-7-methoxyquinazolin-6-yloxy)azetidin-1-yl)-N-methyl-4-oxobut-2-ene amide], the IC50 came out at 41 nM in test [1] and 262 nM in test [2]. The like results for `C=C(C)C(=O)N1CC(Oc2cc3c(Nc4ccc(F)c(Cl)c4F)ncnc3cc2OC)C1` [Example 29, 1-(3-(4-(3-chloro-2,4-difluorophenylamino)-7-methoxyquinazolin-6-yloxy)azetidin-1-yl)-2-methylpro-2-pen-1-one] were, in that order, 29 nM and 19 nM. Turning to `COC(=O)/C=C\C(=O)N1CC(Oc2cc3c(Nc4cccc(Cl)c4F)ncnc3cc2OC)C1` [Example 30, (Z)-methyl 4-(3-(4-(3-chloro-2-fluorophenylamino)-7-methoxyquinazolin-6-yloxy)azetidin-1-yl)-4-oxobut-2-enoate], the IC50 was found to be 1 nM in test [1] and 0.6 nM in test [2].

As to `COc1cc2ncnc(Nc3ccc(F)c(Cl)c3F)c2cc1OC1CN(C(=O)/C=C/Cl)C1` [Example 33, (E)-3-chloro-1-(3-(4-(3-chloro-2,4-difluorophenylamino)-7-methoxyquinazolin-6-yloxy)azetidin-1-yl)pro-2-pen-1-one], the IC50 in test [1] turned out to be 44 nM; in test [2], 35 nM. On the same counts, the results for `C=CC(=O)N1CCC(Oc2cc3c(N[C@H](C)c4ccccc4)ncnc3cc2OC)CC1` [Example 35, (R)-1-(4-(7-methoxy-4-(1-phenylethylamino)quinazolin-6-yloxy)piperidin-1-yl)pro-2-pen-1-one] are 514 nM and 3 nM.

On to `C#Cc1cccc(Nc2ncnc3cc(OC)c(OC4CCN(C(=O)C=C)CC4)cc23)c1` [Example 37, 1-(4-(4-(3-ethynylphenylamino)-7-methoxyquinazolin-6-yloxy)piperidin-1-yl)pro-2-pen-1-one], for which the IC50 in test [1] is 52 nM; in test [2], 79 nM. Take `C=CC(=O)N1CCC(Oc2cc3c(Nc4cc(OC)c(Cl)cc4OC)ncnc3cc2OC)CC1` [Example 38, 1-(4-(4-(4-chloro-2,5-dimethoxyphenylamino)-7-methoxyquinazolin-6-yloxy)piperidin-1-yl)pro-2-pen-1-one]: the IC50 in test [1] and in test [2] was above 10000 nM throughout. Consider `C=CC(=O)N1CCC(Oc2cc3c(Nc4ccc(C(C)C)cc4)ncnc3cc2OC)CC1` [Example 40, 1-(4-(4-(4-isopropylphenylamino)-7-methoxyquinazolin-6-yloxy)piperidin-1-yl)pro-2-pen-1-one], for which the IC50 was determined as 23 nM in test [1] and 37 nM in test [2]. On to `C=CC(=O)N1CCC(Oc2cc3c(Nc4ccc(Cl)c(Cl)c4)ncnc3cc2OC)CC1` [Example 44, 1-(4-(4-(3,4-dichlorophenylamino)-7-methoxyquinazolin-6-yloxy)piperidin-1-yl)pro-2-pen-1-one], for which the IC50 in test [2] was found to be 2 nM. For the compound `C=CC(=O)N1CCC(Oc2cc3c(Nc4ccc(F)c(F)c4F)ncnc3cc2OC)CC1` [Example 45, 1-(4-(7-methoxy-4-(2,3,4-trifluorophenylamino)quinazolin-6-yloxy)piperidin-1-yl)pro-2-pen-1-one], the IC50 came to 43 nM in test [1] and 3 nM in test [2]. In the case of `C=CC(=O)N1CCC(Oc2cc3c(Nc4ccc(F)c(C)c4)ncnc3cc2OC)CC1` [Example 46, 1-(4-(4-(4-fluoro-3-methylphenylamino)-7-methoxyquinazolin-6-yloxy)piperidin-1-yl)pro-2-pen-1-one], the IC50 in test [1] is 8 nM; in test [2], 2 nM.

For `C=CC(=O)N1CCC(Oc2cc3c(Nc4ccc(C)c(C)c4)ncnc3cc2OC)CC1` [Example 47, 1-(4-(4-(3,4-dimethylphenylamino)-7-methoxyquinazolin-6-yloxy)piperidin-1-yl)pro-2-pen-1-one], the IC50 in test [1] stood at 19 nM; in test [2], 10 nM. Regarding `C=CC(=O)N1CCC(Oc2cc3c(Nc4ccc(Oc5ccccc5)cc4)ncnc3cc2OC)CC1` [Example 48, 1-(4-(7-methoxy-4-(4-phenoxyphenylamino)quinazolin-6-yloxy)piperidin-1-yl)pro-2-pen-1-one], the figures for the IC50 in test [1] and in test [2] were above 1000 nM and 8 nM, respectively.

For the compound `C=CC(=O)N1CCC(Oc2cc3c(Nc4ccc5c(c4)CCC5)ncnc3cc2OC)CC1` [Example 49, 1-(4-(4-(2,3-dihydro-1H-inden-5-ylamino)-7-methoxyquinazolin-6-yloxy)piperidin-1-yl)pro-2-pen-1-one], the IC50 in test [1] came to 29 nM; in test [2], 45 nM. As for `C=CC(=O)N1CCC(Oc2cc3c(Nc4cc(Cl)c(O)c(Cl)c4)ncnc3cc2OC)CC1` [Example 50, 1-(4-(4-(3,5-dichloro-4-hydroxyphenylamino)-7-methoxyquinazolin-6-yloxy)piperidin-1-yl)pro-2-pen-1-one], the IC50 in test [1] worked out at 179 nM; in test [2], 91 nM. Take `C=CC(=O)N1CCC(Oc2cc3c(Nc4ccc(Cl)c(O)c4)ncnc3cc2OC)CC1` [Example 51, 1-(4-(4-(4-chloro-3-hydroxyphenylamino)-7-methoxyquinazolin-6-yloxy)piperidin-1-yl)pro-2-pen-1-one]: the IC50 in test [1] was 105 nM; in test [2] it was 19 nM. For the compound `C=CC(=O)N1CCC(Oc2cc3c(Nc4ccc(OCc5ccccn5)c(Cl)c4)ncnc3cc2OC)CC1` [Example 55, 1-(4-(4-(3-chloro-4-(pyridin-2-ylmethoxy)phenylamino)-7-methoxyquinazolin-6-yloxy)piperidin-1-yl)pro-2-pen-1-one], the IC50 in test [2] came to 2 nM.

Turning to `COc1cc2ncnc(Nc3ccc(F)c(Cl)c3F)c2cc1OC1CCN(C(=O)/C=C/CN(C)C)CC1` [Example 98, (E)-1-(4-(4-(3-chloro-2,4-difluorophenylamino)-7-methoxyquinazolin-6-yloxy)piperidin-1-yl)-4-(dimethylamino)but-2-en-1-one], the IC50 in test [2] came to 45 nM.
